Assay results: US4145253A, “Process for producing fortimicin factors” (Abbott Laboratories, priority 1976, dated 1979)
≈ marks a conversion by molar mass, not a printed value. Entries after “also recorded” stand apart in the source; their conditions may differ. Counter-ions that a name gives are not always drawn. Like-named read-outs stand apart in the source and are kept apart here.

Legend:
[1] = system: Bacillus subtilis No. 10707; assay: antibacterial activity of preparations (paper disc method); type: cell-based
Procedure: After the completion of fermentation, the culture liquor is adjusted to pH 2.5 with concentrated sulfuric acid and is stirred for 30 minutes. Thereafter, about 7 kg of a filter aid, Radiolite No. 600 (product of Showa Kagaku Kogyo Co., Ltd.) is added to the culture liquor and the microbial cells are removed by filtration. The filtrate is adjusted to pH 7.5 by the addition of 6N sodium hydroxide, and then passed through a column packed with about 20 l of a cation exchange resin, Amberlite IRC-50 (ammonium form). The active principles are adsorbed on the resin, and the effluent is discarded. After the resin is washed with water, elution of the active principles is carried out with 0.5N aqueous ammonia. The eluate is subjected to determination of activity by a paper disc method using an agar plate of Bacillus subtilis No. 10707. Fractions showing an activity are combined and concentrated under reduced pressure to about 1 L. The concentrate is then passed through a column packed with 500 ml of an anion exchange resin, Dowex 1 × 2 (OH form) and then about 2 L of water is passed through the column. In this manner, impurities are removed and the active principles are eluted with water. The active fractions are combined and concentrated under reduced pressure to about 100 ml. The concentrate is passed through a column packed with about 50 ml of active carbon powder whereby the active principles are adsorbed. The column is washed with water and the effluent and washings are discarded. Elution is carried out with 0.2N sulfuric acid. The eluate is subjected to determination of activity by a paper disc method using Bacillus subtilis No. 10707. The active fractions are combined and passed through a column of a resin, Dowex 44 (OH form) and elution of the active principles is carried out with water. The active fractions are combined and concentrated to about 50 ml. The concentrate is freeze-dried to obtain a crude powder of Fortimicin complex. The yield of the crude powder is about 35 g and the activity is 580 unit/mg (activity of 1 mg of the pure preparate corresponds to 1,000 units).
About 500 ml of silica gel is suspended in a solvent comprising isopropanol, chloroform, and concentrated aqueous ammonia (4:2:1 by volume) and packed in a glass column as a tight, uniform layer. Thereafter, the column is thoroughly washed with the same solvent. Then 10 g of the crude powder obtained in the above step B is charged over the silica gel to form a uniform, thin layer. After the crude powder is charged, the same solvent is poured gradually into the column from the top and thereafter elution is carried out continuously at a flow rate of about 50 ml/hour. The eluate is recovered in 20 ml fractions and each of the fractions is subjected to determination of activity by the paper disc method using Bacillus subtilis No. 10707. First, Fortimicin B is eluted followed by Fortimicin A. Then, the elution is continued and after Fortimicin C is eluted, Fortimicin D is eluted. The active fractions are subjected to thin layer chromatography and the fractions containing Fortimicin D are combined and concentrated under reduced pressure to sufficiently remove the solvent.
About 500 ml of silica gel, suspended in a solvent comprising isopropanol, chloroform, and concentrated aqueous ammonia (4:2:1 by volume) is packed in a glass column as a tight, uniform layer. Thereafter, the column is thoroughly washed with the same solvent. Then the crude powder obtained above is charged over the silica gel in a uniform thin layer and the same solvent is poured gradually into the column from the top and thereafter elution is carried out continuously at a flow rate of about 50 ml/hour. The eluate is recovered in 20 ml fractions and each of the fractions is subjected to determination of activity by the paper disc method using Bacillus subtilis No. 10707. First, Fortimicin B is eluted followed by Fortimicin KE. […]

[2] = LD50 for dd-mouse; details: in vivo; dd-mouse weighing 20 ± 1 g
Excerpt: Further, Fortimicin D is expected to have a therapeutic effect on various infections (in human beings and in animals) induced by the above-mentioned various bacteria. […] With such antibacterial properties, Fortimicin D is applicable to medicinal purposes.

[3] = system: Gram-positive and Gram-negative bacteria; assay: antibacterial spectrum, statement in words; type: cell-based
Excerpt: (§1) Table 4 illustrates the antibacterial spectra of Fortimicin D and Fortimicin KE against various microorganisms.
(§2) (Minimum Inhibitory Concentration, γ/ml
(§3) measured by agar dilution method at pH 8.0)

[4] = solubility of the free base; type: physicochemical; details: for solubility in organic solvents: chloroform, benzene, ethyl acetate, butyl acetate, ethyl ether, butanol, petroleum ether, n-hexane, etc., ordinary organic solvents; for solubility in ethanol and acetone / solubility in methanol / solubility in water: free base
[5] = system: Pseudomonas aeruginosa KY 8510; assay: antibacterial spectrum, MIC by agar dilution method; type: cell-based; details: KY8510, pH 8.0, strain resistant to kanamycin, kanamycin B, tobramycin, gentamicin C1a and ribostamycin, read-out: Minimum Inhibitory Concentration
Excerpt: as §1, §2, §3

[6] = system: Pseudomonas aeruginosa BMH No. 1; assay: as above; type: cell-based; details: BMHNO.1, pH 8.0, read-out: Minimum Inhibitory Concentration
Excerpt: as §1, §2, §3

[7] = system: Escherichia coli KY 8315; assay: as above; type: cell-based
Excerpt: as §1, §2, §3

[8] = system: Salmonella typhosa ATCC 9992; assay: as above; type: cell-based; details: Salmonella enterica, pH 8, read-out: Minimum Inhibitory Concentration
Excerpt: as §1, §2, §3

[9] = system: Klebsiella pneumoniae ATCC 10031; assay: as above; type: cell-based
Excerpt: as §1, §2, §3

[10] = system: Staphylococcus aureus ATCC 6538P; assay: as above; type: cell-based; details: ATCC6538P, pH 8.0, read-out: Minimum Inhibitory Concentration
Excerpt: as §1, §2, §3

[11] = system: Escherichia coli ATCC 26; assay: as above; type: cell-based
Excerpt: as §1, §2, §3

[12] = system: Escherichia coli KY 8327; assay: as above; type: cell-based; details: for MIC: Escherichia coli
Excerpt: as §1, §2, §3

[13] = system: Shigella sonnei ATCC 9290; assay: as above; type: cell-based; details: ATCC9290, pH 8.0, read-out: Minimum Inhibitory Concentration
Excerpt: as §1, §2, §3

[14] = system: Bacillus subtilis No. 10707; assay: as above; type: cell-based; details: pH 8.0, read-out: Minimum Inhibitory Concentration
Excerpt: as §1, §2, §3

[15] = stability in alkaline solution; type: physicochemical
[16] = Examples 2 and 3, before cellulose column chromatography
[17] = Examples 2 and 3, free base after cellulose column chromatography
[18] = Examples 4 and 5, purified preparate, Casamino acid medium
[19] = Table 5, purified preparate from Micromonospora olivoasterospora MK-70
[20] = Table 5, purified preparate from Micromonospora olivoasterospora MK-80
[21] = Table 5, purified preparate from Micromonospora olivoasterospora Mm 744
[22] = preparate of Example 1, strain CS-26, silica gel chromatography

COC1C(O)C(N)C(OC2OC(CN)CCC2N)C(O)C1N(C)C(=O)CN (stereo not shown) [Fortimicin D sulfate]
activity ([1]; Examples 8 and 9, sulfate): about 650 unit/mg | LD50 [2]: 159 mg/kg

COC1C(O)C(N)C(OC2OC(CN)CCC2N)C(O)C1N(C)C(=O)CN (stereo not shown) [Fortimicin D]
antibacterial activity / spectrum [3]: strong antibacterial activity against a broad range of Gram-positive and Gram-negative bacteria | activity [1, 16]: about 840 unit/mg | activity [1, 17]: 970 unit/mg | activity [1, 18]: about 975 unit/mg | activity [1, 19]: 985 unit/mg | activity [1, 20]: 975 unit/mg | activity [1, 21]: 990 unit/mg | activity [1, 22]: about 980 unit/mg | solubility in organic solvents [4]: poorly soluble; also recorded: insoluble | solubility in ethanol and acetone [4]: slightly soluble | solubility in methanol [4]: soluble | solubility in water [4]: readily soluble | MIC [5]: 5 µg/mL (≈ 12.8 µM) | MIC [6]: 5 µg/mL (≈ 12.8 µM) | MIC ([7]; KY8315, agar dilution method, pH 8.0, read-out: Minimum Inhibitory Concentration): 0.13 µg/mL (≈ 0.332 µM) | MIC [8]: 0.08 µg/mL (≈ 0.204 µM) | MIC ([9]; ATCC10031, agar dilution method, pH 8.0, read-out: Minimum Inhibitory Concentration): 0.08 µg/mL (≈ 0.204 µM) | MIC [10]: 0.02 µg/mL (≈ 0.0511 µM) | MIC ([11]; ATCC26, agar dilution method, pH 8.0, read-out: Minimum Inhibitory Concentration): 0.32 µg/mL (≈ 0.817 µM) | MIC ([12]; KY8327, agar dilution method, pH 8.0, strain resistant to kanamycin, gentamicin and tobramycin, read-out: Minimum Inhibitory Concentration): 0.13 µg/mL (≈ 0.332 µM) | activity against resistant Escherichia coli ([12]; certain strains of Escherichia coli resistant to kanamycin, gentamicin and tobramycin): effective against certain strains of Escherichia coli which are resistant to kanamycin, gentamicin and tobramycin | MIC [13]: 0.3 µg/mL (≈ 0.766 µM) | MIC [14]: 0.02 µg/mL (≈ 0.0511 µM)

CNC1C(O)C(OC2OC(CN)CCC2N)C(N)C(O)C1OC (stereo not shown) [Fortimicin KE]
stability in an alkaline solution [15]: stable in an alkaline solution | antibacterial activity / spectrum [3]: broad antibacterial spectrum | activity ([1]; Example 7, free base obtained from Fortimicin D with barium hydroxide): about 970 unit/mg | activity [1, 16]: about 860 unit/mg | activity [1, 17]: 980 unit/mg | activity [1, 18]: about 985 unit/mg | activity [1, 19]: 985 unit/mg | activity [1, 20]: 980 unit/mg | activity [1, 21]: 990 unit/mg | activity [1, 22]: about 970 unit/mg | solubility in organic solvents [4]: poorly soluble; also recorded: insoluble | solubility in ethanol and acetone [4]: slightly soluble | solubility in methanol [4]: soluble | solubility in water [4]: readily soluble | MIC [6]: 208 µg/mL (≈ 623 µM) | MIC ([7]; KY8315, pH 8, read-out: Minimum Inhibitory Concentration): 26.1 µg/mL (≈ 78 µM) | MIC [8]: 13.1 µg/mL (≈ 39.2 µM) | MIC ([9]; ATCC10031, pH 8, read-out: Minimum Inhibitory Concentration): 26.1 µg/mL (≈ 78 µM) | MIC [10]: 1.65 µg/mL (≈ 4.93 µM) | MIC ([11]; ATCC26, pH 8, read-out: Minimum Inhibitory Concentration): 26.1 µg/mL (≈ 78 µM) | MIC ([12]; KY8327, pH 8, read-out: Minimum Inhibitory Concentration): 26.1 µg/mL (≈ 78 µM) | MIC [13]: 26.1 µg/mL (≈ 78 µM) | MIC [14]: 104 µg/mL (≈ 312 µM)

CNC1C(O)C(OC2OC(CN)CCC2N)C(N)C(O)C1OC (stereo not shown) [sulfate of Fortimicin KE]
activity ([1]; Examples 8 and 9, sulfate): about 610 unit/mg
